Tests used:
Conditions in all cases: human; call rule not given here
Hepatotoxicity [1] = assay: FDA HLAED, liver enzyme composite activity
Hepatotoxicity [2] = assay: FDA HLAED, serum glutamic pyruvic transaminase (SGPT) increase
Hepatotoxicity [3] = assay: FDA HLAED, alkaline phosphatase increase
Hepatotoxicity [4] = assay: FDA HLAED, serum glutamic oxaloacetic transaminase (SGOT) increase
Hepatotoxicity [5] = assay: FDA HLAED, gamma-glutamyl transferase (GGT) increase
Throughout, for GGT Increase - Index Value: reference of the scale not given here.

SMILES | Composite Activity - Active (Hepatotoxicity [1]) | Composite Activity - Marginal (Hepatotoxicity [1]) | Composite Activity - Score (Hepatotoxicity [1]) | SGPT Increase - Activity Score (Hepatotoxicity [2]) | SGPT Increase - Index Value (Hepatotoxicity [2]) | SGPT Increase - Number of Reports (Hepatotoxicity [2]) | Alkaline Phosphatase Increase - Activity Score (Hepatotoxicity [3]) | Alkaline Phosphatase Increase - Index Value (Hepatotoxicity [3]) | Alkaline Phosphatase Increase - Number of Reports (Hepatotoxicity [3]) | SGOT Increase - Activity Score (Hepatotoxicity [4]) | SGOT Increase - Index Value (Hepatotoxicity [4]) | SGOT Increase - Number of Reports (Hepatotoxicity [4]) | GGT Increase - Activity Score (Hepatotoxicity [5]) | GGT Increase - Index Value (Hepatotoxicity [5]) | GGT Increase - Number of Reports (Hepatotoxicity [5]) | Composite Activity - Active (Hepatotoxicity [1]; Liver) | Composite Activity - Marginal (Hepatotoxicity [1]; Liver) | Composite Activity - Score (Hepatotoxicity [1]; Liver)
Oc1ncnc2[nH]ncc12 [ALLOPURINOL] | 4 | 0 | Active | Active | 9.4 | >= 4 | Active | 4.7 | >= 4 | Active | 15 | >= 4 | Active | 9.4 | >= 4 | – | – | –
NC(=O)N1c2ccccc2C=Cc2ccccc21 [CARBAMAZEPINE] | 1 | 1 | – | – | – | – | Marginally Active | 3.3 | >= 4 | – | – | – | Active | 4.4 | >= 4 | – | – | –
Clc1cccc(Cl)c1N=C1NCCN1 [CLONIDINE] | – | – | – | Active | 7.6 | >= 4 | Active | 11.5 | >= 4 | – | – | – | Active | 9.5 | >= 4 | 2 | 0 | Active
CN(C)CCC=C1c2ccccc2COc2ccccc21 [DOXEPIN] | 2 | 0 | Active | – | – | – | Active | 434.8 | < 4 | – | – | – | Active | 434.8 | < 4 | – | – | –
CCN(CC)CCOc1ccc(/C(=C(/Cl)c2ccccc2)c2ccccc2)cc1 [ENCLOMIPHENE] | 3 | 0 | Active | Active | 25 | >= 4 | – | – | – | Active | 18.8 | >= 4 | Active | 15.6 | >= 4 | – | – | –
CCCCCCCCCCCCCCCCCC(=O)O.CC[C@H]1OC(=O)[C@H](C)[C@@H](O[C@H]2C[C@@](C)(OC)[C@@H](O)[C@H](C)O2)[C@H](C)[C@@H](O[C@@H]2O[C@H](C)C[C@H](N(C)C)[C@H]2OC(C)=O)[C@](C)(O)C[C@@H](C)C(=O)[C@H](C)[C@@H](O)[C@]1(C)O [ERYTHROMYCIN ACISTRATE] | 3 | 0 | Active | Active | 8.5 | >= 4 | Active | 7.3 | >= 4 | Active | 7.9 | >= 4 | – | – | – | – | – | –
CCOC(=O)CCC(=O)O[C@H]1[C@H](O[C@@H]2[C@@H](C)[C@H](O[C@H]3C[C@@](C)(OC)[C@@H](O)[C@H](C)O3)[C@@H](C)C(=O)O[C@H](CC)[C@@](C)(O)[C@H](O)[C@@H](C)C(=O)[C@H](C)C[C@@]2(C)O)O[C@H](C)C[C@@H]1N(C)C [ERYTHROMYCIN ETHYLSUCCINATE] | 3 | 0 | Active | Active | 8.5 | >= 4 | Active | 7.3 | >= 4 | Active | 7.9 | >= 4 | – | – | – | – | – | –
CCC(=O)O[C@H]1[C@H](O[C@@H]2[C@@H](C)[C@H](O[C@H]3C[C@@](C)(OC)[C@@H](O)[C@H](C)O3)[C@@H](C)C(=O)O[C@H](CC)[C@@](C)(O)[C@H](O)[C@@H](C)C(=O)[C@H](C)C[C@@]2(C)O)O[C@H](C)C[C@@H]1N(C)C [ERYTHROMYCIN PROPIONATE] | 3 | 0 | Active | Active | 8.5 | >= 4 | Active | 7.3 | >= 4 | Active | 7.9 | >= 4 | – | – | – | – | – | –
CC[C@H]1OC(=O)[C@H](C)[C@@H](O[C@H]2C[C@@](C)(OC)[C@@H](O)[C@H](C)O2)[C@H](C)[C@@H](O[C@@H]2O[C@H](C)C[C@H](N(C)C)[C@H]2O)[C@](C)(O)C[C@@H](C)C(=O)[C@H](C)[C@@H](O)[C@]1(C)O [ERYTHROMYCIN] | 3 | 0 | Active | Active | 8.5 | >= 4 | Active | 7.3 | >= 4 | Active | 7.9 | >= 4 | – | – | – | – | – | –
CC(C)Cc1ccc(C(C)C(=O)O)cc1 (stereo not drawn) [IBUPROFEN] | 0 | 3 | – | Marginally Active | No Shipping Units | >= 4 | Marginally Active | No Shipping Units | >= 4 | Marginally Active | No Shipping Units | >= 4 | – | – | – | – | – | –
NNCCc1ccccc1 [PHENELZINE] | – | – | – | Active | 4.9 | >= 4 | – | – | – | Active | 4.9 | >= 4 | Active | 4.9 | >= 4 | 3 | 0 | Active
CC(=O)CC(c1ccccc1)c1c(O)c2ccccc2oc1=O (stereo not drawn) [WARFARIN] | 0 | 3 | – | Marginally Active | No Shipping Units | >= 4 | Marginally Active | No Shipping Units | >= 4 | Marginally Active | No Shipping Units | >= 4 | – | – | – | – | – | –

— ChEMBL document CHEMBL1697781, “Assessment of the health effects of chemicals in humans: II. Construction of an adverse effects database for QSAR modeling” (Curr Drug Discov Technol, 2004)
